Source: ChEMBL document CHEMBL3880420, “1,5-Diaryl-2-alkylpyrrole-3-Substituted Nitro Esters, Selective COX-2 Inhibitors and Nitric Oxide Donors” (2013)
The source made the active and inactive calls. The calls are words filed in the database; no cut-off is given here.

tested on: Liver; experiment: Induction of nitric oxide release in rat liver assessed as time require for amount of nitrite release by test compound equal to half its maximum release at 1 mM by amperometric method; format: functional; conditions: not given

Question: For `Cc1c(CCOCCCO[N+](=O)[O-])cc(-c2ccc(S(C)(=O)=O)cc2)n1-c1cccc(F)c1`, which T1/2 is on record?
Answer: 1.41 h

Question: For `Cc1c(CC(=O)OCCO[N+](=O)[O-])cc(-c2ccc(S(C)(=O)=O)cc2)n1-c1ccc(F)cc1`, which T1/2 is on record?
Answer: 1.15 h

Question: With `Cc1c(CCOCCO[N+](=O)[O-])cc(-c2ccc(S(C)(=O)=O)cc2)n1-c1cccc(F)c1` as the molecule, how does the T1/2 read?
Answer: 1.01 h

Question: Which T1/2 does the source give for `Cc1c(CCOCCO[N+](=O)[O-])cc(-c2ccc(S(C)(=O)=O)cc2)n1-c1ccc(F)cc1` here?
Answer: 0.713 h

Question: With `Cc1c(CCOCCO[N+](=O)[O-])cc(-c2ccc(S(C)(=O)=O)cc2)n1-c1ccc(F)c(F)c1` as the molecule, how does the T1/2 read?
Answer: 1.14 h

Question: Which T1/2 does the source give for `O=C(NCCO[N+](=O)[O-])c1cccnc1` here?
Answer: 0.463 h

target: T1, Prostaglandin G/H synthase 1 (Mus musculus) (UniProt P22437); experiment: Inhibition of COX1 in mouse J774 cells using arachidonic acid as substrate assessed as decrease in PGE2 production at 10 uM preincubated for 15 mins followed by substrate addition measured after 30 mins by radioimmunoassay relative to control; format: cell-based; conditions: not given
T1 sequence (whole entry): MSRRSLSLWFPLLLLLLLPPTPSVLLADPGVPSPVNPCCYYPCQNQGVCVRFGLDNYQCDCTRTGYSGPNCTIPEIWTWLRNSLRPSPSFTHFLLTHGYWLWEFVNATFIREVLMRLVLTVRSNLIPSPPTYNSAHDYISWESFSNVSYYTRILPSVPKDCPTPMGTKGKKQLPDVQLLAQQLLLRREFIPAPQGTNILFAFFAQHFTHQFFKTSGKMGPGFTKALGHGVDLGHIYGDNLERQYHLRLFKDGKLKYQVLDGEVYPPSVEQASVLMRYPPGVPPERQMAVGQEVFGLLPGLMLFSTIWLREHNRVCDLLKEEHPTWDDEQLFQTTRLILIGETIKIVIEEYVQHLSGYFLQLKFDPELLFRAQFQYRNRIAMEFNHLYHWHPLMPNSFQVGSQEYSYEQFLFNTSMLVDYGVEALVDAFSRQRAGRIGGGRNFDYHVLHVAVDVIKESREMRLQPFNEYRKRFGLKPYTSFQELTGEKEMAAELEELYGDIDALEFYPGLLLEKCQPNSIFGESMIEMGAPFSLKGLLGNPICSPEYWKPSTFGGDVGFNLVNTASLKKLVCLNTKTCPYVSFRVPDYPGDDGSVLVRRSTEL

Question: Which inhibition does the source give for `Cc1c(C(N)C(=O)OCCCO[N+](=O)[O-])cc(-c2ccc(S(C)(=O)=O)cc2)n1-c1ccc(F)cc1` (racemic) here?
Answer: < 20%

Question: With `Cc1c(CC(=O)NCCO[N+](=O)[O-])cc(-c2ccc(S(C)(=O)=O)cc2)n1-c1ccc(F)cc1` as the molecule, how does the inhibition read?
Answer: < 20%

Question: For `COc1ccc(-n2c(-c3ccc(S(C)(=O)=O)cc3)cc(CC(=O)OCCCO)c2C)cc1`, which inhibition is on record?
Answer: < 20%

Question: Which inhibition does the source give for `Cc1c(CCOCCCO[N+](=O)[O-])cc(-c2ccc(S(C)(=O)=O)cc2)n1-c1cccc(F)c1` here?
Answer: < 20%

Question: Which inhibition does the source give for `Cc1c(CC(=O)OCCO)cc(-c2ccc(S(C)(=O)=O)cc2)n1-c1ccc(F)cc1` here?
Answer: < 20%

Question: With `Cc1c(CC(=O)NCCO)cc(-c2ccc(S(C)(=O)=O)cc2)n1-c1ccc(F)cc1` as the molecule, how does the inhibition read?
Answer: < 20%

Question: For `Cc1c(CC(=O)OCCCO)cc(-c2ccc(S(C)(=O)=O)cc2)n1-c1cccc(F)c1`, which inhibition is on record?
Answer: < 20%

Question: Which inhibition does the source give for `Cc1c(CC(=O)OCC(CO[N+](=O)[O-])O[N+](=O)[O-])cc(-c2ccc(S(C)(=O)=O)cc2)n1-c1ccccc1` (racemic) here?
Answer: < 20%

Question: For `Cc1c(CC(=O)OCCO[N+](=O)[O-])cc(-c2ccc(S(C)(=O)=O)cc2)n1-c1ccc(F)cc1`, which inhibition is on record?
Answer: < 20%

Question: Which inhibition does the source give for `Cc1c(C(N)C(=O)OCCO[N+](=O)[O-])cc(-c2ccc(S(C)(=O)=O)cc2)n1-c1ccc(F)cc1` (racemic) here?
Answer: < 20%

Question: With `Cc1c(CCOCCO[N+](=O)[O-])cc(-c2ccc(S(C)(=O)=O)cc2)n1-c1cccc(F)c1` as the molecule, how does the inhibition read?
Answer: < 20%

Question: Which inhibition does the source give for `Cc1c(CC(=O)NCCCO)cc(-c2ccc(S(C)(=O)=O)cc2)n1-c1ccc(F)cc1` here?
Answer: < 20%

Question: With `Cc1c(CCOCCCO[N+](=O)[O-])cc(-c2ccc(S(C)(=O)=O)cc2)n1-c1ccccc1` as the molecule, how does the inhibition read?
Answer: < 20%

Question: With `Cc1c(CCOCCO)cc(-c2ccc(S(C)(=O)=O)cc2)n1-c1cccc(F)c1` as the molecule, how does the inhibition read?
Answer: < 20%

Question: For `Cc1c(CCOCCCO)cc(-c2ccc(S(C)(=O)=O)cc2)n1-c1cccc(F)c1`, which inhibition is on record?
Answer: < 20%

Question: For `Cc1c(CC(=O)NC(CCO[N+](=O)[O-])C(=O)O)cc(-c2ccc(S(C)(=O)=O)cc2)n1-c1cccc(F)c1` (racemic), which inhibition is on record?
Answer: < 20%

Question: For `COc1ccc(-n2c(-c3ccc(S(C)(=O)=O)cc3)cc(CC(=O)OCCCO[N+](=O)[O-])c2C)cc1`, which inhibition is on record?
Answer: < 20%

Question: Which inhibition does the source give for `COc1ccc(-n2c(-c3ccc(S(C)(=O)=O)cc3)cc(CC(=O)OCCCCO)c2C)cc1` here?
Answer: < 20%

Question: Which inhibition does the source give for `Cc1c(CC(=O)NCCCO)cc(-c2ccc(S(C)(=O)=O)cc2)n1-c1cccc(F)c1` here?
Answer: < 20%

Question: For `CSc1ccc(-n2c(-c3ccc(S(C)(=O)=O)cc3)cc(CC(=O)OCCCO[N+](=O)[O-])c2C)cc1`, which inhibition is on record?
Answer: < 20%

Question: For `Cc1c(CC(=O)OCCO[N+](=O)[O-])cc(-c2ccc(S(C)(=O)=O)cc2)n1-c1cccc(F)c1`, which inhibition is on record?
Answer: < 20%

Question: With `Cc1c(CC(=O)OCCO)cc(-c2ccc(S(C)(=O)=O)cc2)n1-c1ccccc1` as the molecule, how does the inhibition read?
Answer: < 20%

Question: With `Cc1c(CC(=O)NC(CCO[N+](=O)[O-])C(=O)O)cc(-c2ccc(S(C)(=O)=O)cc2)n1-c1ccc(F)cc1` (racemic) as the molecule, how does the inhibition read?
Answer: < 20%

Question: For `Cc1c(CCOCCO[N+](=O)[O-])cc(-c2ccc(S(C)(=O)=O)cc2)n1-c1ccccc1`, which inhibition is on record?
Answer: < 20%

Question: For `COc1ccc(-n2c(-c3ccc(S(C)(=O)=O)cc3)cc(CC(=O)OCCO[N+](=O)[O-])c2C)cc1`, which inhibition is on record?
Answer: < 20%

Question: Which inhibition does the source give for `COc1ccc(-n2c(-c3ccc(S(C)(=O)=O)cc3)cc(CC(=O)OCCCCO[N+](=O)[O-])c2C)cc1` here?
Answer: < 20%

Question: With `Cc1c(CC(=O)OCCCCO[N+](=O)[O-])cc(-c2ccc(S(C)(=O)=O)cc2)n1-c1cccc(F)c1` as the molecule, how does the inhibition read?
Answer: < 20%

Question: With `Cc1c(CCOCCO[N+](=O)[O-])cc(-c2ccc(S(C)(=O)=O)cc2)n1-c1ccc(F)cc1` as the molecule, how does the inhibition read?
Answer: < 20%

Question: With `Cc1c(CC(=O)OCCCCO[N+](=O)[O-])cc(-c2ccc(S(C)(=O)=O)cc2)n1-c1ccc(F)cc1` as the molecule, how does the inhibition read?
Answer: < 20%

Question: Which inhibition does the source give for `Cc1c(CCOCCO[N+](=O)[O-])cc(-c2ccc(S(C)(=O)=O)cc2)n1-c1ccc(F)c(F)c1` here?
Answer: < 20%

Question: Which inhibition does the source give for `CSc1ccc(-n2c(-c3ccc(S(C)(=O)=O)cc3)cc(CC(=O)OCCCO)c2C)cc1` here?
Answer: < 20%

Question: Which inhibition does the source give for `Cc1c(CC(=O)N[C@@H](CO)C(=O)O)cc(-c2ccc(S(C)(=O)=O)cc2)n1-c1ccc(F)cc1` here?
Answer: < 20%

Question: Which inhibition does the source give for `Cc1c(CC(=O)OCCO)cc(-c2ccc(S(C)(=O)=O)cc2)n1-c1cccc(F)c1` here?
Answer: < 20%

Question: For `Cc1c(CCOCCCO[N+](=O)[O-])cc(-c2ccc(S(C)(=O)=O)cc2)n1-c1ccc(F)cc1`, which inhibition is on record?
Answer: < 20%

Question: With `CSc1ccc(-n2c(-c3ccc(S(C)(=O)=O)cc3)cc(CC(=O)OCCCCO)c2C)cc1` as the molecule, how does the inhibition read?
Answer: < 20%

Question: Which inhibition does the source give for `Cc1c(CC(=O)OCCO[N+](=O)[O-])cc(-c2ccc(S(C)(=O)=O)cc2)n1-c1ccccc1` here?
Answer: < 20%

Question: For `CSc1ccc(-n2c(-c3ccc(S(C)(=O)=O)cc3)cc(CC(=O)OCCO)c2C)cc1`, which inhibition is on record?
Answer: < 20%

Question: With `Cc1c(CC(=O)OCCCCO)cc(-c2ccc(S(C)(=O)=O)cc2)n1-c1cccc(F)c1` as the molecule, how does the inhibition read?
Answer: < 20%

Question: With `Cc1c(C(N)C(=O)OCCCCO[N+](=O)[O-])cc(-c2ccc(S(C)(=O)=O)cc2)n1-c1ccc(F)cc1` (racemic) as the molecule, how does the inhibition read?
Answer: < 20%

Question: Which inhibition does the source give for `Cc1c(CCOCCO)cc(-c2ccc(S(C)(=O)=O)cc2)n1-c1ccccc1` here?
Answer: < 20%

Question: With `CSc1ccc(-n2c(-c3ccc(S(C)(=O)=O)cc3)cc(CC(=O)OCCO[N+](=O)[O-])c2C)cc1` as the molecule, how does the inhibition read?
Answer: < 20%

Question: Which inhibition does the source give for `Cc1c(CC(=O)NC(CCO)C(=O)O)cc(-c2ccc(S(C)(=O)=O)cc2)n1-c1ccc(F)cc1` (racemic) here?
Answer: < 20%

Question: For `Cc1c(CC(=O)OCCCO[N+](=O)[O-])cc(-c2ccc(S(C)(=O)=O)cc2)n1-c1cccc(F)c1`, which inhibition is on record?
Answer: < 20%

Question: With `Cc1c(CCOCCCO)cc(-c2ccc(S(C)(=O)=O)cc2)n1-c1ccc(F)cc1` as the molecule, how does the inhibition read?
Answer: < 20%

Question: For `Cc1c(CCOCCO)cc(-c2ccc(S(C)(=O)=O)cc2)n1-c1ccc(F)c(F)c1`, which inhibition is on record?
Answer: < 20%

Question: With `Cc1c(CC(=O)NCCO)cc(-c2ccc(S(C)(=O)=O)cc2)n1-c1cccc(F)c1` as the molecule, how does the inhibition read?
Answer: < 20%

Question: With `Cc1c(CC(=O)N[C@@H](CO[N+](=O)[O-])C(=O)O)cc(-c2ccc(S(C)(=O)=O)cc2)n1-c1ccc(F)cc1` as the molecule, how does the inhibition read?
Answer: < 20%

Question: With `Cc1c(CC(=O)N[C@@H](CO[N+](=O)[O-])C(=O)O)cc(-c2ccc(S(C)(=O)=O)cc2)n1-c1cccc(F)c1` as the molecule, how does the inhibition read?
Answer: < 20%

Question: Which inhibition does the source give for `COc1ccc(-n2c(-c3ccc(S(C)(=O)=O)cc3)cc(CC(=O)OCCO)c2C)cc1` here?
Answer: < 20%

Question: With `Cc1c(CCOCCO)cc(-c2ccc(S(C)(=O)=O)cc2)n1-c1ccc(F)cc1` as the molecule, how does the inhibition read?
Answer: < 20%

Question: With `CSc1ccc(-n2c(-c3ccc(S(C)(=O)=O)cc3)cc(CC(=O)OCCCCO[N+](=O)[O-])c2C)cc1` as the molecule, how does the inhibition read?
Answer: < 20%

Question: Which inhibition does the source give for `Cc1c(CC(=O)N[C@@H](CO)C(=O)O)cc(-c2ccc(S(C)(=O)=O)cc2)n1-c1cccc(F)c1` here?
Answer: < 20%

tested on: not listed separately; experiment: Vasorelaxing effect in Wistar rat thoracic aorta ring assessed as reduction of KCl-induced contractile tone at 10 uM in presence of guanylate cyclase inhibitor ODQ1; format: functional; conditions: not given

Question: Which Activity does the source give for `Cc1c(C(N)C(=O)OCCCO[N+](=O)[O-])cc(-c2ccc(S(C)(=O)=O)cc2)n1-c1ccc(F)cc1` (racemic) here?
Answer: Active

Question: Which Activity does the source give for `Cc1c(C(N)C(=O)OCCCCO[N+](=O)[O-])cc(-c2ccc(S(C)(=O)=O)cc2)n1-c1ccc(F)cc1` (racemic) here?
Answer: Active

Question: Which Activity does the source give for `CSc1ccc(-n2c(-c3ccc(S(C)(=O)=O)cc3)cc(CC(=O)OCCCCO[N+](=O)[O-])c2C)cc1` here?
Answer: Active

tested on: Liver; experiment: Induction of nitric oxide release in rat liver assessed as increase in nitrite levels at 1 mM by amperometric method; format: functional, tissue-based; conditions: TDE = time-dependent effect

Question: For `Cc1c(CCOCCCO[N+](=O)[O-])cc(-c2ccc(S(C)(=O)=O)cc2)n1-c1cccc(F)c1`, which Activity is on record?
Answer: Tde

Question: Which Activity does the source give for `COc1ccc2cc([C@H](C)C(=O)OCCCCO[N+](=O)[O-])ccc2c1` here?
Answer: Tde
